Measurements reported in US7745120B2, “Cell culture and method for screening for a compound useful in the treatment or prevention of hepatic cirrhosis” (Industrial Technology Research Institute, priority 2004, dated 2010).
“Also recorded” adds a separate entry of the source.

Legend:
Assay type in all cases: cell-based, human
[1] = system: Huh-7PALB-EGFP and immortalized HSC coculture; assay: methylene blue assay of cell activity in thioacetamide-damaged co-culture; details: interferon-α 1000, 5000, 10000 IU/ml added 3 hours before 100 mM thioacetamide; read after 24 hours; FIG. 11A
Method: Modified human HSCs and Huh-7 cells obtained from examples 1 and 6 were co-cultured via layer by layer culturing. Immortalized human HSCs were cultured in a 24-well culture plate, wherein each well was coated with extracellular matrix before use. The extracellular maxtrix used in the present example was Type I collagen or Matrigel. Six hours after the HSCs were attached, Huh-7 cells carrying albumin promoter (pLpLhyg-PAlb5/3-EGFP) (Huh-7PALB-EGFP) were subsequently cultured on the top of the attached HSCs.
One day later, 1000, 5000, 10000 IU/ml of interferon-α(F. Hoffman-La Roche, Ltd.) was added into cells respectively. Three hours later, 100 mM of thioacetamide (Sigma-Aldrich, Co.) was added to damage the cells. After 24 hours, methylene blue assay was conducted for analyzing the cell activity. In the meantime, the intensity of green fluorescence was determined by a fluorescence reader, and the result is shown in FIG. 11B.

[2] = system: Huh-7PALB-EGFP and immortalized HSC coculture; assay: green fluorescence intensity (EGFP reporter under albumin promoter) by fluorescence reader in thioacetamide-damaged co-culture; details: interferon-α 1000, 5000, 10000 IU/ml added 3 hours before 100 mM thioacetamide; read after 24 hours; two independent experiments, average of 3 wells; FIG. 11B
Method: The fluorescence signal expressed from transfected cells of example 5 was observed under a fluorescence microscope, and the fluorescence intensity was analyzed by image analysis software. Fluorescence intensity of EGFP was determined by a fluorescence reader and an fluorescence ELISA reader. The excitation wavelength was 488 nm, and the emission wavelength was 510 nm while the green fluorescence from the EGFP gene was detected. When the red fluorescence from DsRed gene was detected, the excitation wavelength was 558 nm, and the emission wavelength was 583 nm. A flow cytometry (for example, FACSCalibur, Becton Dickinson, Inc.) can also be used to determine the intensity of fluorescence.
Modified human HSCs and Huh-7 cells obtained from examples 1 and 6 were co-cultured via layer by layer culturing. Immortalized human HSCs were cultured in a 24-well culture plate, wherein each well was coated with extracellular matrix before use. The extracellular maxtrix used in the present example was Type I collagen or Matrigel. […]
One day later, 1000, 5000, 10000 IU/ml of interferon-α(F. Hoffman-La Roche, Ltd.) was added into cells respectively. […] In the meantime, the intensity of green fluorescence was determined by a fluorescence reader, and the result is shown in FIG. 11B.

[3] = system: immortalized hepatocyte THLE-2 and immortalized HSC coculture; assay: methylene blue assay of cell activity in thioacetamide-damaged co-culture of normal hepatocytes and HSCs; details: THLE-2 / HSC co-culture; interferon-α 1000, 5000, 10000 IU/ml added 3 hours before thioacetamide; read after another 24 hours; FIG. 11C
Method: To compare the cells in the present example with the normal hepatocytes and HSCs after drug treatment, immortalized human hepatocytes THLE-2 (ATCC NO: CRL-2706, normal primary hepatocytes immortalized by SV40 large T antigen gene) and untransfected human HSCs were co-cultured following procedures described as the above. After 24 hours, 1000,5000,10000 IU/ml of interferon-αwere added. Thioacetamide was applied to damage the cells after 3 hours. After another 24 hours, the cell activity was examined by methylene blue assay, and the result is shown as FIG. 11C. The result corresponds to that of the cell model for drug screening with pLpLhyg-PAlb5/3-EGFP transfected cells (FIG. 11A).

Substance: interferon-α
- effect on damage from thioacetamide, methylene blue assay (cell activity) [1]: decreased the damage from thioacetamide; also recorded: decreased cell damaged by thioacetamide
- effect on damage from thioacetamide, fluorescence intensity expressed by Huh-7PALB-EGFP [2]: decreased the damage from thioacetamide; also recorded: decreased cell damaged by thioacetamide
- effect on damage from thioacetamide, methylene blue assay (cell activity) [3]: decreased the damage from thioacetamide
